By EC50 is commonly meant the concentration at which the effect is half-maximal. A higher EC50 goes with weaker potency.

For the experiment, the system named is AP-1 induced transcriptional activity. The experiment in a line: Cellular Transrepressional Assay (AP-1 luciferase reporter, PMA-activated A549 cells). The format is cell-based. The settings on record: for Emax: A549, 7 h, read-out: AP-1 Max % inh (Cellular Transrepression Assay); for Emax / AP-1 Max % inh (Cellular Transrepression Assay): maximum inhibition. A digest of the protocol:
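A549 cells stably carrying a 7× AP-1–luciferase reporter were stimulated with 10 ng/ml PMA with or without compound (0.1 nM–40 μM) for 7 h. Luminescence read 10 min after luciferase reagent; EC50 fitted from % decrease versus PMA-only signal.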
For orientation: A reporter such as luciferase makes a cellular process visible.

[1] abbreviates: Homo sapiens, Cellular Transrepression Assay.
[2] abbreviates: Homo sapiens, A549, Cellular Transrepression Assay.

For `CN(C)C(=O)c1ccc(-c2ccc3c(n2)Oc2ccccc2[C@@H]3C(C)(C)C(=O)Nc2nncs2)cc1Cl` [Example 260], the Emax under setting [1] amounted to 67.3%. In addition, under setting [2], the half-maximal effective concentration (EC50) came to 23.1 nM.

In the case of `CCN(CC)C(=O)c1ccc(-c2ccc3c(n2)Oc2ccccc2[C@@H]3C(C)(C)C(=O)Nc2nncs2)cc1F` [Example 259], the Emax under setting [1] stood at 23.3%. Moreover, it took 72.2 nM to reach a half-maximal effect under setting [2] (EC50).

For `CC(C)(C(=O)Nc1nc(-c2cccc3ccccc23)cs1)C1c2ccccc2-c2ccccc21` [Example 19], under setting [1], the Emax is 52.7%.

`CC(C)(C(=O)Nc1nncs1)[C@H]1c2ccccc2Oc2nc(-c3ccc(CO)s3)ccc21` [Example 470]: the Emax under setting [1] was determined as 43%. This compound came in with an EC50 under setting [2] of 24.6 nM.

With `CC(C)(C(=O)Nc1nc(Cc2ccc(-c3ccncc3)cc2)cs1)C1c2ccccc2Oc2ncccc21` (stereo not shown) [Example 64], the Emax under setting [1] is 79.3%. Also, it took 19.9 nM to reach a half-maximal effect under setting [2] (EC50).

Take `Cc1ccc(-c2csc(NC(=O)C(C)(C)C3c4ccccc4Cc4ccccc43)n2)c2ccccc12` [Example 16]: under setting [1], the Emax turned out to be 59.9%. Moreover, under setting [2], a half-maximal response (EC50) required 303 nM.

For `CC(C)Cc1ccc(-c2ccc3c(n2)Oc2ccccc2C3C(C)(C)C(=O)Nc2nncs2)cc1` (stereo not shown) [Example 208], for the setting “Cellular Transrepression Assay”, the EC50 amounted to 12.2 nM and the “AP-1 Max % inh (Cellular Transrepression Assay)” value (“AP-1 Max % inh” below) stood at 54.08%.

In the case of `CC(C)Oc1ccc(-c2ccc3c(c2)Oc2ccccc2C3C(C)(C)C(=O)Nc2nncs2)nc1` (stereo not shown) [Example 105], the Emax under setting [1] turned out to be 30.5%. A half-maximal effect under setting [2] (EC50) was put at 12.2 nM.

On to `CCCOc1ccc(-c2ccc3c(n2)Oc2ccccc2C3C(C)(C)C(=O)Nc2nncs2)cc1` (stereo not shown) [Example 217], for which, where the note is “Cellular Transrepression Assay”, the EC50 is 41 nM and the “AP-1 Max % inh” value turned out to be 45.81%.

With `CN(C)C(=O)c1cnc(-c2ccc3c(c2)Oc2ccccc2C3C(C)(C)C(=O)Nc2nncs2)nc1` (stereo not shown) [Example 109], the Emax under setting [1] turned out to be 60.2%. The compound also came in with a concentration giving a half-maximal response (EC50) under setting [2] of 182 nM.

In the case of `CC(C)(O)c1ccc(-c2ccc3c(n2)Oc2ccccc2[C@@H]3C(C)(C)C(=O)NC#N)cc1` [Example 399], under setting [1], the Emax worked out at 69.3%. This compound yielded an EC50 under setting [2] of 333 nM.

Turning to `CN1CCN(c2ccc3c(n2)Oc2ccccc2C3C(C)(C)C(=O)Nc2nncs2)CC1` (stereo not shown) [Example 131], under setting [1], the Emax is 45.6%. The concentration giving a half-maximal response (EC50) under setting [2] was found to be 970 nM.

As to `CC(C)(C(=O)Nc1nc(-c2cccc3ccccc23)cs1)C1c2ccccc2Sc2ccccc21` [Example 6], under setting [1], the Emax turned out to be 67.9%. Also, the concentration giving a half-maximal response (EC50) under setting [2] is 461 nM.

On to `CC(C)(C(=O)Nc1nncs1)C1c2ccccc2Oc2ncccc21` (stereo not shown) [Example 65], for which the Emax under setting [1] was determined as 32.2%. The same compound yielded a half-maximal effective concentration (EC50) under setting [2] of 345 nM.

With `Cc1ccc(-c2csc(NC(=O)C(C)(C)C3c4ccccc4Oc4ccccc43)n2)c2ccccc12` [Example 31], the Emax under setting [1] is 69.4%. This compound also yielded an EC50 under setting [2] of 179 nM.

`CC(C)(C(=O)Nc1nc(-c2ccc(F)c3ccccc23)c[nH]1)C1c2ccccc2Oc2ccccc21` [Example 38]: the Emax under setting [1] was 70.4%.

For the compound `Cc1cnc(NC(=O)C(C)(C)[C@H]2c3ccccc3Oc3nc(-c4ccc(C(=O)N(C)C)cc4)ccc32)s1` [Example 444], the Emax under setting [1] was 57.5%. This compound also came in with an EC50 under setting [2] of 44.2 nM.

With `CC(C)(C)NC(=O)Oc1ccc2c(c1)Oc1ccccc1C2C(C)(C)C(=O)Nc1nncs1` (stereo not shown) [Example 382], under setting [1], the Emax worked out at 47.2%. Under setting [2], this compound had an EC50 of 206 nM.

Regarding `CC(C)(C(=O)Nc1nncs1)C1c2ccccc2Oc2cc(OC(=O)NCc3ccccc3)ccc21` (stereo not shown) [Example 389], for the setting “Cellular Transrepression Assay”, the response was half-maximal at 50.5 nM (EC50) and the “AP-1 Max % inh” value is recorded as 55.20%.

`CSc1nnc(NC(=O)C(C)(C)[C@H]2c3ccccc3Oc3nc(-c4ccc(C(=O)N5CCCC5)c(F)c4)ccc32)s1` [Example 425]: the Emax under setting [1] was determined as 49.9%. The compound further registered a 50% effective concentration (EC50) under setting [2] of 84.4 nM.

On to `CCCCCCCCNC(=O)Oc1ccc2c(c1)Oc1ccccc1C2C(C)(C)C(=O)Nc1nncs1` (stereo not shown) [Example 374], for which the Emax under setting [1] is 50.9%. The same compound gave a half-maximal effective concentration (EC50) under setting [2] of 30.9 nM.

On to `C[S+]([O-])c1ccc(-c2ccc3c(n2)Oc2ccccc2[C@@H]3C(C)(C)C(=O)Nc2nncs2)cc1` (stereo partly shown) [Example 241], for which the Emax under setting [1] was determined as 46.8%. Moreover, the 50% effective concentration (EC50) under setting [2] is 25.3 nM.

`CC(=O)N1CCN(C(=O)c2ccc(-c3ccc4c(n3)Oc3ccccc3[C@@H]4C(C)(C)C(=O)Nc3nncs3)cc2F)CC1` [Example 324]: under setting [1], the Emax turned out to be 54.9%. Also, the EC50 under setting [2] came out at 431 nM.

Turning to `CC(C)(C(=O)Nc1nnc(C#N)s1)[C@H]1c2ccccc2Oc2nc(-c3ccc(C(=O)N4CCOCC4)cc3)ccc21` [Example 434], for the setting “Cellular Transrepression Assay”, the EC50 stood at 197 nM and the “AP-1 Max % inh” value is listed as 38.45%.

With `CCNS(=O)(=O)c1ccc(-c2ccc3c(n2)Oc2ccccc2C3C(C)(C)C(=O)Nc2nncs2)cc1` (stereo not shown) [Example 234], under “Cellular Transrepression Assay”, the concentration giving a half-maximal response (EC50) was 405 nM and the “AP-1 Max % inh” value came to 27.08%.

As for `Cc1nnc(NC(=O)C(C)(C)[C@H]2c3ccccc3Oc3nc(-c4ccc(C(=O)N5CCOCC5)cc4)ccc32)s1` [Example 465], the Emax under setting [1] was 61.5%. The compound also had an EC50 under setting [2] of 16.6 nM.

As for `COc1ccc2c(n1)Oc1ccccc1C2C(C)(C)C(=O)Nc1nc(Cc2ccc(-c3ccncc3)cc2)cs1` (stereo not shown) [Example 79], under setting [1], the Emax came to 62.3%. Also, under setting [2], the response was half-maximal at 9.42 nM (EC50).

As for `CC(C)(C(=O)Nc1nc(-c2ccc(F)c3ccccc23)cs1)C1c2ccccc2Sc2ccccc21` [Example 8], the Emax under setting [1] was 69%. In addition, under setting [2], a half-maximal effect (EC50) was put at 546 nM.

Take `CC(C)(C(=O)Nc1nncs1)[C@H]1c2ccccc2Oc2nc(-c3ccc(C(=O)N4CCC[C@@H]4CO)c(F)c3)ccc21` [Example 344]: under setting [1], the Emax turned out to be 44.5%. The compound also returned an EC50 under setting [2] of 39.6 nM.

Turning to `CC(C)(C(=O)Nc1nc(Cc2ccc(-c3ccncc3)cc2)cs1)C1c2ccccc2S(=O)(=O)c2ccccc21` [Example 10], under setting [1], the Emax turned out to be 86.5%. Besides, the 50% effective concentration (EC50) under setting [2] was 16.8 nM.

As to `Cc1nsc(NC(=O)C(C)(C)[C@H]2c3ccccc3Oc3nc(-c4ccc(C(=O)N(C)C)cc4)ccc32)n1` [Example 449], the Emax under setting [1] stood at 48.9%. Further, the 50% effective concentration (EC50) under setting [2] was 126 nM.

For `CN(C)C(=O)c1ccc(-c2ccc3c(c2)Oc2ccccc2C3C(C)(C)C(=O)Nc2nncs2)nc1` (stereo not shown) [Example 102], the Emax under setting [1] worked out at 45%. The compound also had an EC50 under setting [2] of 58 nM.

As to `CC(C)(C(=O)Nc1nncs1)[C@H]1c2ccccc2Oc2nc(-c3ccc(C(=O)N4CCOCC4)cc3)ccc21` [Example 257], under “Cellular Transrepression Assay”, the EC50 was determined as 12.4 nM and the “AP-1 Max % inh” value was 63.96%.

Turning to `CCc1cnc(-c2ccc3c(c2)Oc2ccccc2C3C(C)(C)C(=O)Nc2nncs2)nc1` (stereo not shown) [Example 106], the Emax under setting [1] was determined as 48.4%. In addition, under setting [2], the response was half-maximal at 24.1 nM (EC50).

As to `CC(C)(C(=O)Nc1nc(-c2cccc3ccccc23)cs1)C1c2ccccc2Oc2ccccc21` [Example 30], the Emax under setting [1] was 67.2%. Under setting [2], this compound had a 50% effective concentration (EC50) of 338 nM.

Take `CN(C)c1ccc(-c2ccc3c(n2)Oc2ccccc2C3C(C)(C)C(=O)Nc2nncs2)cc1` (stereo not shown) [Example 176]: under “Cellular Transrepression Assay”, the concentration for a half-maximal effect (EC50) worked out at 118 nM and the “AP-1 Max % inh” value was 43.54%.

For the compound `CC(C)(C(=O)Nc1nncs1)C1c2ccccc2Oc2cc(OC(=O)NCCc3ccccc3)ccc21` (stereo not shown) [Example 375], under “Cellular Transrepression Assay”, it took 82.8 nM to reach a half-maximal effect (EC50) and the “AP-1 Max % inh” value is recorded as 51.24%.

For the compound `CN(CCC#N)C(=O)c1ccc(-c2ccc3c(n2)Oc2ccccc2[C@@H]3C(C)(C)C(=O)Nc2nncs2)cc1` [Example 267], under “Cellular Transrepression Assay”, it took 569 nM to reach a half-maximal effect (EC50) and the “AP-1 Max % inh” value stood at 40.78%.

Consider `Cc1nnc(NC(=O)C(C)(C)[C@H]2c3ccccc3Oc3nc(-c4ccc(C(=O)N(C)C)c(F)c4)ccc32)s1` [Example 474], for which the Emax under setting [1] turned out to be 37.9%. For the same compound, the EC50 under setting [2] turned out to be 85.4 nM.

With `CC(C)Oc1ccc(-c2ccc3c(n2)Oc2ccccc2[C@@H]3C(C)(C)C(=O)Nc2ncns2)cc1F` [Example 459], the Emax under setting [1] came to 35.4%. This compound registered a half-maximal effective concentration (EC50) under setting [2] of 102 nM.

For the compound `CC(C)(C(=O)Nc1nncs1)C1c2ccccc2Oc2cc(OC(=O)NCCCc3ccccc3)ccc21` (stereo not shown) [Example 380], under “Cellular Transrepression Assay”, it took 101 nM to reach a half-maximal effect (EC50) and the “AP-1 Max % inh” value amounted to 53.58%.

As to `CC(C)C1CCCN1C(=O)c1ccc(-c2ccc3c(n2)Oc2ccccc2[C@@H]3C(C)(C)C(=O)Nc2nncs2)cc1` (stereo partly shown) [Example 318], under setting [1], the Emax is 27.6%. Besides, a half-maximal effect under setting [2] (EC50) was put at 63.1 nM.

`CC(C)(C(=O)Nc1nncs1)[C@H]1c2ccccc2Oc2cc(OC(=O)NCc3ccccc3)ccc21` [Example 369, (s)-9-(1-(1,3,4-thiadiazole-2ylamino)-2-methyl-1-oxopropan-2-yl)-9H-xanthen-3-yl benzylcarbamate]: the Emax under setting [1] was found to be 55.5%. Further, under setting [2], it took 33 nM to reach a half-maximal effect (EC50).

With `COc1ccc(NC(=O)Oc2ccc3c(c2)Oc2ccccc2C3C(C)(C)C(=O)Nc2nncs2)cc1` (stereo not shown) [Example 390], where the note is “Cellular Transrepression Assay”, the response was half-maximal at 42.8 nM (EC50) and the “AP-1 Max % inh” value came out at 56.63%.

As to `CC(C)(C(=O)Nc1nncs1)[C@H]1c2ccccc2Oc2nc(-c3cn[nH]c3)ccc21` [Example 450], the Emax under setting [1] stood at 26.3%. Moreover, the concentration for a half-maximal effect (EC50) under setting [2] stood at 59.2 nM.

For `Cc1nnc(NC(=O)C(C)(C)[C@H]2c3ccccc3Oc3nc(-c4ccc(C(=O)N(C)C)cc4)ccc32)s1` [Example 445], under setting [1], the Emax amounted to 45.7%. In addition, under setting [2], the midpoint of the response, the EC50, lay at 38.5 nM.

As to `CC(C)(C(=O)NC#N)[C@H]1c2ccccc2Oc2nc(-c3ccc(C(=O)N4CCCC4)c(F)c3)ccc21` [Example 398], the Emax under setting [1] stood at 50%. For the same compound, the EC50 under setting [2] was 480 nM.

For `CN(C)C(=O)c1ccc(-c2ccc3c(n2)Oc2c(F)cccc2C3C(C)(C)C(=O)Nc2nncs2)cc1F` (racemic) [Example 165], where the note is “Cellular Transrepression Assay”, it took 25.6 nM to reach a half-maximal effect (EC50) and the “AP-1 Max % inh” value is 56.92%.

In the case of `CCc1cnc(-c2ccc3c(c2)Oc2ccccc2[C@H]3C(C)(C)C(=O)Nc2nncs2)nc1` [Example 110], under setting [1], the Emax worked out at 35.7%. Under setting [2], this compound had an EC50 of 183 nM.

For the compound `Cc1ccc(-c2csc(NC(=O)CC3c4ccccc4Sc4ccccc43)n2)c2ccccc12` [Example 27], the Emax under setting [1] came out at 15%.
